In patent US9120749B2, “Quinoline derivatives and MELK inhibitors containing the same” (ONCOTHERAPY SCIENCE, INC., priority 2010, dated 2015):
Counter-ions that a name gives are not always drawn. Like-named read-outs stand apart in the source and are kept apart here.

How the values were obtained:
MELK = MELK (Homo sapiens, UniProt Q14680); test: Kinase assay: MELK activity, phosphorylation of FITC-labeled histone H3 peptide measured by IMAP fluorescence polarization; type: biochemical; settings: read-out: IC50 (μM) (kinase assay)
Procedure, shortened: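 Fluorescence polarization was measured 0.5 h (room temperature) after quenching with threefold volume of progressive binding solution. Test compounds from 12.5 mM DMSO stocks were assayed at 1% DMSO.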

T47D cells = test: Cell-based assay: anti-proliferative activity, Cell Counting Kit-8, 72 hours (T47D)
Procedure, shortened: (§1)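 Proliferation read with Cell Counting Kit-8 after 72 hours of inhibitor treatment, from seeding of 2,000–3,000 cells/well. Lines: T47D, A549, BT-549; HT-1197, lacking MELK by western blot, served as negative control. IC50 derived.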

A549 cells = test: Cell-based assay: anti-proliferative activity, Cell Counting Kit-8, 72 hours (A549); settings: 72 hours
Procedure, shortened: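 Cell Counting Kit-8 read-out of A549 growth after 72 hours of inhibitor exposure, cells plated in 96-well format. Values reported as IC50.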

HT-1197 cells = test: Cell-based assay: anti-proliferative activity, Cell Counting Kit-8, 72 hours (HT-1197, negative control without MELK expression); settings: HT1197 cells (negative control), 72 hours
Procedure, shortened: as §1

DU4475 cells = test: Cell-based assay: anti-proliferative activity, Cell Counting Kit-8, 72 hours (DU4475)

MELK, sequence (Q14680 whole entry, looked up): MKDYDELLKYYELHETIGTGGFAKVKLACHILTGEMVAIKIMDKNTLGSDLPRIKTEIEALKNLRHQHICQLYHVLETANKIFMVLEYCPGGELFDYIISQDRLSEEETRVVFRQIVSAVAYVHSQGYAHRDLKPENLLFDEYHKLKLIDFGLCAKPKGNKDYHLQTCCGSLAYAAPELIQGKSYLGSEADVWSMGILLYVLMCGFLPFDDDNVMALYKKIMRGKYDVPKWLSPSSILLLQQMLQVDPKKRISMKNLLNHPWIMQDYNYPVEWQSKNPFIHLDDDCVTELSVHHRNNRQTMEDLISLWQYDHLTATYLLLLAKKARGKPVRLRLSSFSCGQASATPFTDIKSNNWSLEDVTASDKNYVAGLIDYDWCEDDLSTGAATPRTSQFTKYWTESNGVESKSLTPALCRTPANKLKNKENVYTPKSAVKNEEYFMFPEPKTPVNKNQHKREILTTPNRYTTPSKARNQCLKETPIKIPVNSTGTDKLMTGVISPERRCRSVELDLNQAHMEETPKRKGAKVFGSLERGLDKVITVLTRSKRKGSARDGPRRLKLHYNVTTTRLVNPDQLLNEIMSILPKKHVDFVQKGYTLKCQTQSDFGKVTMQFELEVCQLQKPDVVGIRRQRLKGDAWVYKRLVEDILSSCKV

SMILES	IC50 (MELK)	IC50 (T47D cells; Homo sapiens, T47D, 72 h)	IC50 (A549 cells; Homo sapiens, A549, 72 h)	IC50 (HT-1197 cells; Homo sapiens, HT1197, 72 h)	IC50 (DU4475 cells; Homo sapiens, DU-4475, 72 h)	also measured
COc1cc(-c2cc3c(Nc4ccc(CN(C)C)cc4)c(C(=O)C4CC4)cnc3cc2F)cc(Cl)c1O [Example 540, (6-(3-chloro-4-hydroxy-5-methoxyphenyl)-4-(4-((dimethylamino)methyl)phenylamino)-7-fluoroquinolin-3-yl)(cyclopropyl)methanone]	0.064 µM	0.89 µM	0.25 µM	3.7 µM	0.35 µM	
CCCC(=O)c1cnc2ccc(-c3cc(Cl)c(O)c(OC)c3)cc2c1Nc1ccc(N2CCNCC2)nc1 [Example 617, 1-(6-(3-chloro-4-hydroxy-5-methoxyphenyl)-4-(6-(piperazin-1-yl)pyridin-3-ylamino)quinolin-3-yl)butan-1-one]	0.0042 µM	0.33 µM	0.19 µM	1.7 µM	0.32 µM	
CN[C@H]1CC[C@H](Nc2c(C(=O)C3CC3)cnc3ccc(-c4cc(F)c(O)c(Cl)c4)cc23)CC1 [Example 523, {6-(3-Chloro-5-fluoro-4-hydroxyphenyl)-4-[trans-4-(methylamino)cyclohexylamino]quinolin-3-yl}(cyclopropyl)methanone]	0.0024 µM	0.033 µM	0.19 µM	1.3 µM	0.024 µM	
CN1CCN(c2c(C(=O)C3CC3)cnc3ccc(-c4cc(F)c(O)c(Cl)c4)cc23)CC1 [Example 534, (6-(3-chloro-5-fluoro-4-hydroxyphenyl)-4-(4-methylpiperazin-1-yl)quinolin-3-yl)(cyclopropyl)methanone]	0.025 µM	1.1 µM	1.4 µM	2.8 µM	0.96 µM	
CC(C)C(=O)c1cnc2ccc(-c3cc(F)c(O)c(Cl)c3)cc2c1N[C@H]1CC[C@H](CN(C)C)CC1 [Example 620]	0.0066 µM	0.16 µM	0.18 µM	0.17 µM	0.095 µM	
CCCC(=O)c1cnc2ccc(-c3cc(Cl)c(O)c(Cl)c3)cc2c1Nc1ccc(CN(C)C)cc1 [Example 531, 1-(6-(3,5-dichloro-4-hydroxyphenyl)-4-((4-((dimethylamino)methyl)phenyl)amino)quinolin-3-yl)butan-1-one dihydrochloride]						IC50 (MELK; dihydrochloride): 0.0052 µM; IC50 (T47D cells; 72 hours, dihydrochloride): 0.11 µM; IC50 (A549 cells; dihydrochloride): 0.18 µM; IC50 (HT-1197 cells; dihydrochloride): 1.3 µM; IC50 (DU4475 cells; dihydrochloride): 0.072 µM
O=C(c1cnc2ccc(-c3cc(F)c(O)c(Cl)c3)cc2c1Nc1ccc(N2CCNCC2)cn1)C1CC1 [Example 525, (6-(3-chloro-5-fluoro-4-hydroxyphenyl)-4-(5-(piperazin-1-yl)pyridin-2-ylamino)quinolin-3-yl)(cyclopropyl)methanone]	0.0048 µM	0.48 µM	1.7 µM	11 µM	0.46 µM	
COc1cc(-c2ccc3ncc(C(=O)C4CC4)c(Nc4cnn(C5CCNCC5)c4)c3c2)cc(Cl)c1O [Example 512, (6-(3-chloro-4-hydroxy-5-methoxyphenyl)-4-(1-(piperidin-4-yl)-1H-pyrazol-4-ylamino)quinolin-3-yl)(cyclopropyl)methanone]	0.0022 µM	0.41 µM	0.3 µM	2.9 µM	0.31 µM	
NC1CCCN(c2ncc(Nc3c(C(=O)C4CC4)cnc4ccc(-c5cc(F)c(O)c(Cl)c5)cc34)cn2)C1 (stereo not drawn) [Example 626, (4-(2-(3-aminopiperidin-1-yl)pyrimidin-5-ylamino)-6-(3-chloro-5-fluoro-4-hydroxyphenyl)quinolin-3-yl)(cyclopropyl)methanone]	0.0011 µM	0.0051 µM	0.0073 µM	0.05 µM	0.0048 µM	
CCCC(=O)c1cnc2ccc(-c3cc(Cl)c(O)c(OC)c3)cc2c1N[C@H]1CC[C@H](N)CC1 [Example 529, 1-(4-((trans-4-aminocyclohexyl)amino)-6-(3-chloro-4-hydroxy-5-methoxyphenyl)quinolin-3-yl)butan-1-one]	0.0038 µM	0.081 µM	0.15 µM	1.5 µM	0.076 µM	
CN(C)Cc1cccc(Nc2c(C(=O)C3CC3)cnc3ccc(-c4cc(F)c(O)c(Cl)c4)cc23)c1 [Example 629, (6-(3-chloro-5-fluoro-4-hydroxyphenyl)-4-(3-((dimethylamino)methyl)phenylamino)quinolin-3-yl)(cyclopropyl)methanone]	0.0051 µM	0.58 µM	0.12 µM	3.3 µM	0.069 µM	
NC1CCN(c2ccc(Nc3c(C(=O)C4CC4)cnc4ccc(-c5cc(F)c(O)c(Cl)c5)cc34)cn2)C1 (stereo not drawn) [Example 577, (4-(6-(3-aminopyrrolidin-1-yl)pyridin-3-ylamino)-6-(3-chloro-5-fluoro-4-hydroxyphenyl)quinolin-3-yl)(cyclopropyl)methanone hydrochloride]						IC50 (MELK; hydrochloride): 0.0037 µM; IC50 (T47D cells; 72 hours, hydrochloride): 0.0065 µM; IC50 (A549 cells; hydrochloride): 0.029 µM; IC50 (HT-1197 cells; hydrochloride): 0.52 µM; IC50 (DU4475 cells; hydrochloride): 0.014 µM
O=C(c1cnc2ccc(-c3cc(F)c(O)c(Cl)c3)cc2c1N[C@H]1CC[C@H](CN2CCCC2)CC1)C1CC1 [Example 587, (6-(3-chloro-5-fluoro-4-hydroxyphenyl)-4-((trans-4-(pyrrolidin-1-ylmethyl)cyclohexyl)amino)quinolin-3-yl)(cyclopropyl)methanone]	0.0032 µM	0.11 µM	0.084 µM	0.55 µM	0.065 µM	
COc1cc(-c2ccc3ncc(C(=O)C4CC4)c(NC4C[C@H]5CC[C@@H](C4)N5)c3c2)cc(Cl)c1O (stereo partly drawn) [Example 579, (4-((1R,3r,5S)-8-azabicyclo[3.2.1]octan-3-ylamino)-6-(3-chloro-4-hydroxy-5-methoxyphenyl)quinolin-3-yl)(cyclopropyl)methanone]	0.0042 µM	0.17 µM	0.27 µM	7.8 µM	0.14 µM	
COc1cc(-c2ccc3ncc(C(=O)C4CC4)c(Nc4ccc(N5CCCC(N)C5)nc4)c3c2)cc(Cl)c1O (stereo not drawn) [Example 554, (4-(6-(3-aminopiperidin-1-yl)pyridin-3-ylamino)-6-(3-chloro-4-hydroxy-5-methoxyphenyl)quinolin-3-yl)(cyclopropyl)methanone]	0.0031 µM	0.068 µM	0.08 µM	1.9 µM	0.025 µM	
COc1cc(-c2ccc3ncc(C(=O)C4CC4)c(Nc4ccc(C(C)(C)N)cc4)c3c2)cc(Cl)c1O [Example 603, (4-(4-(2-aminopropan-2-yl)phenylamino)-6-(3-chloro-4-hydroxy-5-methoxyphenyl)quinolin-3-yl)(cyclopropyl)methanone]	0.0036 µM	0.52 µM	0.64 µM	1.7 µM	0.37 µM	
COc1cc(-c2ccc3ncc(C(=O)C4CC4)c(Nc4ccc(CCN(C)C)cc4)c3c2)cc(Cl)c1O [Example 612, (6-(3-chloro-4-hydroxy-5-methoxyphenyl)-4-(4-(2-(dimethylamino)ethyl)phenylamino)quinolin-3-yl)(cyclopropyl)methanone]	0.0055 µM	0.84 µM	0.72 µM	4.7 µM	0.4 µM	
CCCC(=O)c1cnc2ccc(-c3cc(Cl)c(O)c(OC)c3)cc2c1Nc1ccc(CN(C)C)cc1 [Example 538, 1-(6-(3-chloro-4-hydroxy-5-methoxyphenyl)-4-(4-((dimethylamino)methyl)phenylamino)quinolin-3-yl)butan-1-one]	0.02 µM	0.28 µM	0.45 µM	3.1 µM	0.27 µM	
